Tested on: 855422-203-R-J1-PDC complex spheroids, viability
Assay: Anticancer human tumor 855422-203-R-J1-PDC patient-derived bladder carcinoma cell line growth inhibition [CLK]
Conditions: for IC50: curve of first compound; for viability, T/C: stronger effect = lower value
How it was run: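 Multi-cell-type spheroids combined patient-derived tumor cells with HUVEC endothelial cells and human mesenchymal stem cells. Paired agents were dosed in half-log steps down from about clinical Cmax, or from 10 microM where Cmax was unknown.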

[1] = second compound 0.0316 µM, first compound 0.00949 µM
[2] = second compound 0.0316 µM, first compound 0.03 µM
[3] = second compound 0.0316 µM, first compound 0.0949 µM
[4] = second compound 0.0316 µM, first compound 0.3 µM
[5] = second compound 0.1 µM, first compound 0.00949 µM
[6] = second compound 0.1 µM, first compound 0.03 µM
[7] = second compound 0.1 µM, first compound 0.0949 µM
[8] = second compound 0.1 µM, first compound 0.3 µM
[9] = second compound 0.316 µM, first compound 0.00949 µM
[10] = second compound 0.316 µM, first compound 0.03 µM
[11] = second compound 0.316 µM, first compound 0.0949 µM
[12] = second compound 0.316 µM, first compound 0.3 µM
[13] = second compound 1 µM, first compound 0.00949 µM
[14] = second compound 1 µM, first compound 0.03 µM
[15] = second compound 1 µM, first compound 0.0949 µM
[16] = second compound 1 µM, first compound 0.3 µM
[17] = second compound 3.16 µM, first compound 0.00949 µM
[18] = second compound 3.16 µM, first compound 0.03 µM
[19] = second compound 3.16 µM, first compound 0.0949 µM
[20] = second compound 3.16 µM, first compound 0.3 µM
[21] = second compound 10 µM, first compound 0.00949 µM
[22] = second compound 10 µM, first compound 0.03 µM
[23] = second compound 10 µM, first compound 0.0949 µM
[24] = second compound 10 µM, first compound 0.3 µM
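Also: spheroids exposed to drugs for seven days before readout.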
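For viability, T/C in this document: 100% = DMSO vehicle control wells.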

C=CC(=O)Nc1cc(Nc2nccc(-c3cn(C)c4ccccc34)n2)c(OC)cc1N(C)CCN(C)C + CN1CCN(c2cc(C(=O)Nc3cc4cc(-c5cnn(C)c5)ccc4cn3)ccn2)CC1
IC50 (second compound 0.0316 µM): > 300 nM
IC50 (second compound 0.1 µM): > 300 nM
IC50 (second compound 0.316 µM): < 0.949 nM
IC50 (second compound 1 µM): < 0.949 nM
IC50 (second compound 3.16 µM): < 0.949 nM
IC50 (second compound 10 µM): < 0.949 nM
viability, T/C (second compound 0.0316 µM, first compound 0.000949 µM): 104%
viability, T/C (second compound 0.0316 µM, first compound 0.003 µM): 88.3%
viability, T/C [1]: 112%
viability, T/C [2]: 102%
viability, T/C [3]: 97.6%
viability, T/C [4]: 91.4%
viability, T/C (second compound 0.1 µM, first compound 0.000949 µM): 79.1%
viability, T/C (second compound 0.1 µM, first compound 0.003 µM): 80.4%
viability, T/C [5]: 85.8%
viability, T/C [6]: 91.7%
viability, T/C [7]: 74.8%
viability, T/C [8]: 64.5%
viability, T/C (second compound 0.316 µM, first compound 0.000949 µM): 7.04%
viability, T/C (second compound 0.316 µM, first compound 0.003 µM): 9.27%
viability, T/C [9]: 8.35%
viability, T/C [10]: 11.4%
viability, T/C [11]: 8.34%
viability, T/C [12]: 7.28%
viability, T/C (second compound 1 µM, first compound 0.000949 µM): 0.18%
viability, T/C (second compound 1 µM, first compound 0.003 µM): 0.31%
viability, T/C [13]: 0.54%
viability, T/C [14]: 0.25%
viability, T/C [15]: 1.14%
viability, T/C [16]: 0.46%
viability, T/C (second compound 3.16 µM, first compound 0.000949 µM): 0.7%
viability, T/C (second compound 3.16 µM, first compound 0.003 µM): 0.52%
viability, T/C [17]: 0.64%
viability, T/C [18]: 0.46%
viability, T/C [19]: 0.68%
viability, T/C [20]: 0.93%
viability, T/C (second compound 10 µM, first compound 0.000949 µM): 0.4%
viability, T/C (second compound 10 µM, first compound 0.003 µM): 1.47%
viability, T/C [21]: 0.52%
viability, T/C [22]: 0.85%
viability, T/C [23]: 0.58%
viability, T/C [24]: 0.28%

NC(=O)C(=Cn1cnc(-c2cc(C(F)(F)F)cc(C(F)(F)F)c2)n1)c1cncnc1 + CN1CCN(c2cc(C(=O)Nc3cc4cc(-c5cnn(C)c5)ccc4cn3)ccn2)CC1
IC50 (second compound 0.0316 µM): 70.6 nM
IC50 (second compound 0.1 µM): 52.3 nM
IC50 (second compound 0.316 µM): < 9.49 nM
IC50 (second compound 1 µM): < 9.49 nM
IC50 (second compound 3.16 µM): < 9.49 nM
IC50 (second compound 10 µM): < 9.49 nM
viability, T/C [1]: 137%
viability, T/C [2]: 122%
viability, T/C [3]: 25.1%
viability, T/C [4]: 5.66%
viability, T/C (second compound 0.0316 µM, first compound 0.949 µM): 6%
viability, T/C (second compound 0.0316 µM, first compound 3 µM): 1.88%
viability, T/C [5]: 82.6%
viability, T/C [6]: 90.1%
viability, T/C [7]: 11.2%
viability, T/C [8]: 2.07%
viability, T/C (second compound 0.1 µM, first compound 0.949 µM): 3.91%
viability, T/C (second compound 0.1 µM, first compound 3 µM): 0.25%
viability, T/C [9]: 2.6%
viability, T/C [10]: 1.37%
viability, T/C [11]: 1.48%
viability, T/C [12]: 0.21%
viability, T/C (second compound 0.316 µM, first compound 0.949 µM): 0.13%
viability, T/C (second compound 0.316 µM, first compound 3 µM): 0.05%
viability, T/C [13]: 0.15%
viability, T/C [14]: 0.76%
viability, T/C [15]: 0.42%
viability, T/C [16]: 0.21%
viability, T/C (second compound 1 µM, first compound 0.949 µM): 0.71%
viability, T/C (second compound 1 µM, first compound 3 µM): 0.05%
viability, T/C [17]: 0.27%
viability, T/C [18]: 0.21%
viability, T/C [19]: 0.42%
viability, T/C [20]: 0.13%
viability, T/C (second compound 3.16 µM, first compound 0.949 µM): 0.22%
viability, T/C (second compound 3.16 µM, first compound 3 µM): 0.09%
viability, T/C [21]: 0.14%
viability, T/C [22]: 0.09%
viability, T/C [23]: 0.34%
viability, T/C [24]: 0.23%
viability, T/C (second compound 10 µM, first compound 0.949 µM): 0.6%
viability, T/C (second compound 10 µM, first compound 3 µM): 0.2%

Nc1ccccc1NC(=O)c1ccc(CNC(=O)OCc2cccnc2)cc1 + CN1CCN(c2cc(C(=O)Nc3cc4cc(-c5cnn(C)c5)ccc4cn3)ccn2)CC1
IC50 (second compound 0.0316 µM): 846 nM
IC50 (second compound 0.1 µM): 486 nM
IC50 (second compound 0.316 µM): < 31.6 nM
IC50 (second compound 1 µM): < 31.6 nM
IC50 (second compound 3.16 µM): < 31.6 nM
IC50 (second compound 10 µM): < 31.6 nM
viability, T/C (second compound 0.0316 µM, first compound 0.0316 µM): 87%
viability, T/C (second compound 0.0316 µM, first compound 0.1 µM): 72.8%
viability, T/C (second compound 0.0316 µM, first compound 0.316 µM): 68.8%
viability, T/C (second compound 0.0316 µM, first compound 1 µM): 49%
viability, T/C (second compound 0.0316 µM, first compound 3.16 µM): 19.2%
viability, T/C (second compound 0.0316 µM, first compound 10 µM): 0.56%
viability, T/C (second compound 0.1 µM, first compound 0.0316 µM): 65.2%
viability, T/C (second compound 0.1 µM, first compound 0.1 µM): 75.4%
viability, T/C (second compound 0.1 µM, first compound 0.316 µM): 58.4%
viability, T/C (second compound 0.1 µM, first compound 1 µM): 33%
viability, T/C (second compound 0.1 µM, first compound 3.16 µM): 10.7%
viability, T/C (second compound 0.1 µM, first compound 10 µM): 0.05%
viability, T/C (second compound 0.316 µM, first compound 0.0316 µM): 5.43%
viability, T/C (second compound 0.316 µM, first compound 0.1 µM): 5.82%
viability, T/C (second compound 0.316 µM, first compound 0.316 µM): 9.34%
viability, T/C (second compound 0.316 µM, first compound 1 µM): 3.91%
viability, T/C (second compound 0.316 µM, first compound 3.16 µM): 0.28%
viability, T/C (second compound 0.316 µM, first compound 10 µM): 0.06%
viability, T/C (second compound 1 µM, first compound 0.0316 µM): 0.15%
viability, T/C (second compound 1 µM, first compound 0.1 µM): 0.19%
viability, T/C (second compound 1 µM, first compound 0.316 µM): 0.13%
viability, T/C (second compound 1 µM, first compound 1 µM): 0.09%
viability, T/C (second compound 1 µM, first compound 3.16 µM): 0.12%
viability, T/C (second compound 1 µM, first compound 10 µM): 0.09%
viability, T/C (second compound 3.16 µM, first compound 0.0316 µM): 0.53%
viability, T/C (second compound 3.16 µM, first compound 0.1 µM): 1.31%
viability, T/C (second compound 3.16 µM, first compound 0.316 µM): 0.28%
viability, T/C (second compound 3.16 µM, first compound 1 µM): 0.49%
viability, T/C (second compound 3.16 µM, first compound 3.16 µM): 0.96%
viability, T/C (second compound 3.16 µM, first compound 10 µM): 0.28%
viability, T/C (second compound 10 µM, first compound 0.0316 µM): 0.2%
viability, T/C (second compound 10 µM, first compound 0.1 µM): 0.34%
viability, T/C (second compound 10 µM, first compound 0.316 µM): 0.42%
viability, T/C (second compound 10 µM, first compound 1 µM): 0.36%
viability, T/C (second compound 10 µM, first compound 3.16 µM): 0.31%
viability, T/C (second compound 10 µM, first compound 10 µM): 0.24%
